Measured values as given in patent US20220204497A1, “NOVEL COMPOUND HAVING ANTICANCER ACTIVITY, AND METHOD FOR PRODUCING SAME” (MEDICINAL BIOCONVERGENCE RESEARCH CENTER, priority 2019, published 2022).

What was measured:
[1] = tested on: A549 cells; experiment: Cell viability by MTT method in A549 cells; format: cell-based; set-up: concentration or dose not given beside the values; conditions: 72 hours treatment
[2] = biological target: T1, AIMP2-DX2 (Homo sapiens, UniProt Q13155); experiment: DX2-nanoluciferase assay (DX2 expression change) in transfected A549 cells; conditions: inhibitory effect on AIMP2-DX2 expression; for inhibition at 40 µM: A549, 4 h, read-out: DX-Nanoluciferase activity (40 μM), 40 μM, 4 hours treatment, A549 cells transfected with nanoluciferase-DX2; for DX-Nanoluciferase activity (40 μM): 4 hours treatment, A549 cells transfected with nanoluciferase-DX2
T1 sequence (Q13155 1-251 isoform Q13155-2): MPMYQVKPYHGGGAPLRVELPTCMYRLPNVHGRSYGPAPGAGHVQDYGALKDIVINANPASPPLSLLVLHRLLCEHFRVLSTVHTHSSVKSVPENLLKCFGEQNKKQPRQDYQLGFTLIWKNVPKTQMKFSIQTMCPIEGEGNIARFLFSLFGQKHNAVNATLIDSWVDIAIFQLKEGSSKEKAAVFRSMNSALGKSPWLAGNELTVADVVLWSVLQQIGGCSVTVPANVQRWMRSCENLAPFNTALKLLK
Method: After cloning DX2 into a plasmid expressing nanoluciferase, the plasmid was transfected into A549 cells. Transfected cells were seeded 1×10^4 per well in a 96-well plate and stabilized for 12 hours. […] Cell viability was measured by the MTT method after 72 hours of treatment with each concentration of the compound in A549 cells.

Row | SMILES | inhibition at 40 µM [2] | Cell Viability (% inhibition) (A549) [1] | DX-Nanoluciferase activity (40 μM) [2]
1 | Cc1ccc(S(=O)(=O)N[C@@H](CC(C)C)C(=O)Nc2ccc(N3CCOCC3)c(F)c2)cc1 [Compound 14, (S)—N-(3-fluoro-4-morpholinophenyl)-4-methyl-2-(4-methylphenylsulfonamido)pentanamide] | 55.6 ± 1.06% | 29.87 ± 2.48% | 
2 | Cc1ccc(S(=O)(=O)N[C@@H](CC(C)C)C(=O)Nc2ccc(N3CCN(C(=O)OC(C)(C)C)CC3)nc2)cc1 [Compound 16, (S)-tert-butyl 4-(5-(4-methyl-2-(4-methylphenylsulfonamido)pentanamido)pyridin-2-yl)piperazine-1-carboxylate] | 9.8% | 73.5% | 
3 | Cc1ccc(S(=O)(=O)N[C@@H](CC(C)C)C(=O)NCCN2CCOCC2)cc1 [Compound 18, (S)-4-methyl-2-(4-methylphenylsulfonamido)-N-(2-morpholinoethyl)pentanamide] | 14.8% | 8.7% | 
4 | CC(C)C[C@H](NS(=O)(=O)c1ccc(C(F)(F)F)cc1)C(=O)Nc1ccc(N2CCOCC2)cc1 [Compound 23, (S)-4-methyl-N-(4-morpholinophenyl)-2-(4-(trifluoromethyl)phenylsulfonamido)pentanamide] | 24.5 ± 4.4% | 64.35% | 
5 | CC(C)C[C@H](NS(=O)(=O)c1cccc([N+](=O)[O-])c1)C(=O)Nc1ccc(N2CCOCC2)cc1 [Compound 24, (S)-4-methyl-N-(4-morpholinophenyl)-2-(3-nitrophenylsulfonamido)pentanamide] | 59.4 ± 2.3% | 18.38 ± 11.76% | 
6 | CC(C)C[C@H](NS(=O)(=O)c1cccc2ccccc12)C(=O)Nc1ccc(N2CCOCC2)cc1 [Compound 25, (S)-4-methyl-N-(4-morpholinophenyl)-2-(naphthalene-1-sulfonamido)pentanamide] | 25.5 ± 5.4% | 38.92 ± 1.69% | 
7 | CC(C)C[C@H](NC(=O)CCS(=O)(=O)c1ccccc1)C(=O)OCc1ccccc1 [Compound 28, (S)-Benzyl 4-methyl-2-(3-(phenylsulfonyl)propanamido)pentanoate] |  | 12.43 ± 8.58% | 57.4 ± 8.4
8 | CC(C)C[C@H](NS(=O)(=O)c1cccs1)C(=O)Nc1ccc(N2CCOCC2)cc1 [Compound 30, (S)-4-methyl-N-(4-morpholinophenyl)-2-(thiophene-2-sulfonamido)pentanamide] | 23.7 ± 3.1% | 9.46 ± 9.61% | 
9 | CC(C)C[C@H](NS(=O)(=O)c1ccc(C(C)C)cc1)C(=O)Nc1ccc(N2CCOCC2)cc1 [Compound 32, (S)-2-(4-isopropylphenylsulfonamido)-4-methyl-N-(4-morpholinophenyl)pentanamide] | 25.8 ± 2.5% | 20.27 ± 5.87% | 
10 | CC(C)C[C@H](NS(=O)(=O)c1ccc(OCc2ccccc2)cc1)C(=O)N1CCOCCOCCOCC1 [Compound 34, (S)-4-(benzyloxy)-N-(4-methyl-1-oxo-1-(1,4,7-trioxa-10-azacyclododecan-10-yl)pentan-2-yl)benzenesulfonamide] | 34.4 ± 0.91% | 38.82 ± 5.12% | 
11 | CC(C)C[C@H](NS(=O)(=O)c1ccc(O)cc1)C(=O)N1CCOCCOCCOCC1 [Compound 35, (S)-4-hydroxy-N-(4-methyl-1-oxo-1-(1,4,7-trioxa-10-azacyclododecan-10-yl)pentan-2-yl)benzenesulfonamide] | 41.9 ± 1.66% | −1.97 ± 14.7% | 
12 | Cc1ccc(S(=O)(=O)N[C@@H](CC(=O)OC(C)(C)C)C(=O)N2CCOCC2)cc1 [Compound 37, (S)-tert-butyl 3-(4-methylphenylsulfonamido)-4-morpholino-4-oxobutanoate] | 45 ± 7.8% | 20.33% | 
13 | Cc1ccc(S(=O)(=O)N[C@@H](Cc2ccccc2)C(=O)N2CCOCC2)cc1 [Compound 38, (S)-4-methyl-N-(1-morpholino-1-oxo-3-phenylpropan-2-yl)benzenesulfonamide] | 32.3 ± 2.6% | 15.14 ± 1.24% | 
14 | Cc1ccc(S(=O)(=O)N[C@H](C(=O)N2CCOCC2)C(C)C)cc1 [Compound 40, (S)-4-methyl-N-(3-methyl-1-morpholino-1-oxobutan-2-yl)benzenesulfonamide] | 31.3 ± 10.3% | −5.41 ± 6.12% | 
15 | CC[C@H](C)[C@H](NS(=O)(=O)c1ccc(C)cc1)C(=O)Nc1ccc(N2CCOCC2)cc1 [Compound 43, (2S,3S)-3-methyl-2-(4-methylphenylsulfonamido)-N-(4-morpholinophenyl)pentanamide] | 42.9 ± 3.9% | 17.08 ± 7.96% | 
16 | Cc1ccc(S(=O)(=O)N[C@@H](Cc2cc3ccccc3[nH]2)C(=O)Nc2ccc(N3CCOCC3)cc2)cc1 [Compound 46, (S)-3-(1H-indol-2-yl)-2-(4-methylphenylsulfonamido)-N-(4-morpholinophenyl) propanamide] |  | 61.35 ± 10.27% | 67.1 ± 10.8
17 | Cc1ccc(S(=O)(=O)N[C@@H](Cc2cn(C)c3ccccc23)C(=O)Nc2ccc(N3CCOCC3)cc2)cc1 [Compound 47, (S)-3-(1-methyl-1H-indol-3-yl)-2-(4-methylphenylsulfonamido)-N-(4-morpholinophenyl) propanamide] |  | 64.95 ± 2.84% | 38.20 ± 7.73
18 | Cc1ccc(S(=O)(=O)N[C@@H](CC(C)C)C(=O)OCc2ccccc2)cc1 [Compound 49, (S)-benzyl 4-methyl-2-(4-methylphenylsulfonamido)pentanoate] | 43.1 ± 6.46% | 96.77 ± 0.70% | 
19 | Cc1ccc(C(=O)N[C@@H](CC(C)C)C(=O)OCc2ccccc2)cc1 [Compound 50, (S)-benzyl 4-methyl-2-(4-methylbenzamido)pentanoate] | 65.9 ± 4% | 75.41 ± 3.28% | 
20 | CC(C)C[C@H](NC(=O)c1ccc(C(C)(C)C)cc1)C(=O)OCc1ccccc1 [Compound 51, (S)-benzyl 2-(4-tert-butylbenzamido)-4-methylpentanoate] | 63.5 ± 4.5% | 11.62 ± 4.29% | 

More lines, main results first:

Row | inhibition at 40 µM [2] | SMILES | Cell Viability (% inhibition) (A549) [1] | DX-Nanoluciferase activity (40 μM) [2]
21 | 43.8 ± 8.7% | Cc1ccc(S(=O)(=O)N[C@@H](CC(C)C)C(=O)Nc2ccc(N3CCOCC3)nc2)cc1 [Compound 12, (S)-4-Methyl-2-(4-methylphenylsulfonamido)-N-(6-morpholinopyridin-3-yl)pentanamide] | 23.26% | 
22 | 51.3 ± 4% | Cc1ccc(S(=O)(=O)N[C@@H](CC(C)C)C(=O)Nc2ccc(N3C[C@@H](C)O[C@@H](C)C3)nc2)cc1 [Compound 13, (S)—N-(6-((2S,6R)-2,6-dimethylmorpholino)pyridin-3-yl)-4-methyl-2-(4-methylphenylsulfonamido)pentanamide] | 14.99% | 
23 | 33.8 ± 8.2% | CC(C)C[C@H](NS(=O)(=O)c1cccc([N+](=O)[O-])c1)C(=O)N1CCOCC1 [Compound 19, (S)—N-(4-methyl-1-morpholino-1-oxopentan-2-yl)-3-nitrobenzenesulfonamide] | 22.61% | 
24 | 31 ± 9.9% | CC(C)C[C@H](NS(=O)(=O)c1cccc(N)c1)C(=O)N1CCOCC1 [Compound 20, (S)-3-amino-N-(4-methyl-1-morpholino-1-oxopentan-2-yl)benzenesulfonamide] | 24.57% | 
25 | 52.7 ± 10.5% | CC(C)C[C@H](NS(=O)(=O)c1ccc2ccccc2c1)C(=O)Nc1ccc(N2CCOCC2)cc1 [Compound 26, (S)-4-methyl-N-(4-morpholinophenyl)-2-(naphthalene-2-sulfonamido)pentanamide] | 5.95 ± 2.15% | 
26 | 36.8 ± 2.25% | CC(C)C[C@H](NS(=O)(=O)c1ccc(C(=O)OCc2ccccc2)cc1)C(=O)N1CCOCCOCCOCC1 [Compound 36, (S)-benzyl 4-(N-(4-methyl-1-oxo-1-(1,4,7-trioxa-10-azacyclododecan-10-yl)pentan-2-yl)sulfamoyl)benzoate] | 64.40 ± 2.96% | 
27 | 7.7 ± 11.2% | Cc1ccc(S(=O)(=O)N[C@@H](CO)C(=O)N2CCOCC2)cc1 [Compound 39, (S)—N-(3-hydroxy-1-morpholino-1-oxopropan-2-yl)-4-methylbenzenesulfonamide] | −2.43 ± 0.94% | 
28 | 52.5 ± 5.6% | Cc1ccc(S(=O)(=O)N[C@@H](CS)C(=O)N2CCOCC2)cc1 [Compound 41, (R)—N-(3-mercapto-1-morpholino-1-oxopropan-2-yl)-4-methylbenzenesulfonamide] | 12.16 ± 6.14% | 
29 | -12.8 ± 10.6% | Cc1ccc(S(=O)(=O)N[C@H](C(=O)Nc2ccc(N3CCOCC3)cc2)[C@H](C)O)cc1 [Compound 42, (2S,3S)-3-hydroxy-2-(4-methylphenylsulfonamido)-N-(4-morpholinophenyl)butanamide] | 13.24 ± 6.93% | 
30 | -5.6 ± 5.2% | CC(C)C[C@H](NC(=O)c1ccc2c(c1)OCO2)C(=O)OCc1ccccc1 [Compound 52, (S)-benzyl 2-(benzo[d][1,3]dioxole-5-carboxamido)-4-methylpentanoate] | 64.59 ± 5.15% | 
